Where a SMILES comes first, the peptide text is derived from it. The star is where a group is joined. OBn = c1ccc(CO*)cc1
Assays:
Format in all cases: functional
Mus musculus [1] = experiment: Analgesic activity in mouse assessed as pain threshold variation at 25 umol/kg, po after 150 mins (RVb = 3.98 +/- 4.03 %)
Mus musculus [2] = experiment: Analgesic activity in mouse assessed as pain threshold variation at 25 umol/kg, po after 180 mins (RVb = -5.10 %)
Mus musculus [3] = experiment: Analgesic activity in mouse assessed as pain threshold variation at 25 umol/kg, po after 120 mins (RVb = 0.69 +/- 1.98 %)
Mus musculus [4] = experiment: Analgesic activity in mouse assessed as pain threshold variation at 25 umol/kg, po after 60 mins (RVb = -6.5 +/- 1.79 %)
Mus musculus [5] = experiment: Analgesic activity in mouse assessed as pain threshold variation at 25 umol/kg, po after 90 mins (RVb = 0.2 +/- 3.75 %)
Mus musculus [6] = experiment: Analgesic activity in mouse assessed as pain threshold variation at 25 umol/kg, po after 30 mins (RVb = -1 +/- 2.8 %)
Mus musculus [7] = experiment: Analgesic activity in mouse assessed as pain threshold variation at 30 umol/kg, po after 90 mins (RVb = 0.17 +/- 0.14 %)
Mus musculus [8] = experiment: Analgesic activity in mouse assessed as pain threshold variation at 30 umol/kg, po after 30 mins (RVb = 0.13 +/- 0.14 %)
Mus musculus [9] = experiment: Analgesic activity in mouse assessed as pain threshold variation at 30 umol/kg, po after 150 mins (RVb = 0.16 +/- 0.13 %)
Mus musculus [10] = experiment: Analgesic activity in mouse assessed as pain threshold variation at 30 umol/kg, po after 180 mins (RVb = 0.15 +/- 0.12 %)
Mus musculus [11] = experiment: Analgesic activity in mouse assessed as pain threshold variation at 30 umol/kg, po after 60 mins (RVb = 0.15 +/- 0.16 %)
Mus musculus [12] = experiment: Analgesic activity in mouse assessed as pain threshold variation at 30 umol/kg, po after 120 mins (RVb = 0.18 +/- 0.15 %)

| SMILES | Activity (Mus musculus [1]) [%] | Activity (Mus musculus [2]) [%] | Activity (Mus musculus [3]) [%] | Activity (Mus musculus [4]) [%] | Activity (Mus musculus [5]) [%] | Activity (Mus musculus [6]) [%] | Activity (Mus musculus [7]) [%] | Activity (Mus musculus [8]) [%] | Activity (Mus musculus [9]) [%] | Activity (Mus musculus [10]) [%] | Activity (Mus musculus [11]) [%] | Activity (Mus musculus [12]) [%] |
| --- | --- | --- | --- | --- | --- | --- | --- | --- | --- | --- | --- | --- |
| O=C(CN(c1nc(Cl)nc2c1ncn2C1CCCCO1)C1CC1)N[C@@H](CCC(=O)OCc1ccccc1)C(=O)OCc1ccccc1 (some centres undefined) | 14.14 | 10.93 | 20.71 | 34.74 | 25.2 | 32.61 | – | – | – | – | – | – |
| Clc1nc(Cl)c2nc[nH]c2n1 | – | – | – | – | – | – | 14.02 | 12.22 | 8.77 | 7.99 | 21.62 | 12.97 |
| Clc1nc(Cl)c2ncn(C3CCCCO3)c2n1 (centres undefined) | – | – | – | – | – | – | 15.01 | 14.3 | 9.89 | 8.03 | 23.99 | 14.13 |
| O=C(CN(c1nc(Cl)nc2c1ncn2C1CCCCO1)C1CC1)N[C@@H](CO)C(=O)OCc1ccccc1 (some centres undefined) | 18.32 | 12.85 | 29.2 | 46.71 | 32.17 | 27.77 | – | – | – | – | – | – |
| Clc1nc(NC2CC2)c2ncn(C3CCCCO3)c2n1 (centres undefined) | 5.72 | 5.92 | 12.64 | 20.63 | 11.93 | 10.27 | 16.96 | 15.2 | 10.78 | 9.95 | 25.61 | 15.66 |
| O=C(OCc1ccccc1)[C@@H]1CCCN1C(=O)CN(c1nc(Cl)nc2c1ncn2C1CCCCO1)C1CC1 (some centres undefined) | 7.85 | 6.63 | 17.49 | 36.73 | 23.31 | 32.25 | – | – | – | – | – | – |
| O=C(CN(c1nc(Cl)nc2c1ncn2C1CCCCO1)C1CC1)N[C@@H](Cc1ccccc1)C(=O)OCc1ccccc1 (some centres undefined) | 3.49 | 1.79 | 26.29 | 45.54 | 37.73 | 39.2 | – | – | – | – | – | – |
| O=C(CN(c1nc(Cl)nc2c1ncn2C1CCCCO1)C1CC1)N[C@@H](Cc1c[nH]c2ccccc12)C(=O)OCc1ccccc1 (some centres undefined) | 11.45 | 5.15 | 22.58 | 51.9 | 38.93 | 43.53 | – | – | – | – | – | – |
| CC(C)(C)OC(=O)NCCCC[C@H](NC(=O)CN(c1nc(Cl)nc2c1ncn2C1CCCCO1)C1CC1)C(=O)OCc1ccccc1 (some centres undefined) | 17.2 | 10.06 | 28.39 | 32.66 | 32.85 | 18.33 | – | – | – | – | – | – |
| NC(=O)C[C@H](NC(=O)CN(c1nc(Cl)nc2c1ncn2C1CCCCO1)C1CC1)C(=O)OCc1ccccc1 (some centres undefined) | 21.71 | 15.45 | 29.15 | 30.54 | 34.95 | 34.53 | – | – | – | – | – | – |
| C[C@@H](O)[C@H](NC(=O)CN(c1nc(Cl)nc2c1ncn2C1CCCCO1)C1CC1)C(=O)OCc1ccccc1 (some centres undefined) | 6.53 | 2.34 | 10.91 | 28.36 | 23.38 | 23.61 | – | – | – | – | – | – |
| NCC(=O)O [GLYCINE] | – | – | – | – | – | – | 11.31 | 10.13 | 11.54 | 10.96 | 11.21 | 12.03 |
| NC(=O)CC[C@H](NC(=O)CN(c1nc(Cl)nc2c1ncn2C1CCCCO1)C1CC1)C(=O)OCc1ccccc1 (some centres undefined) | 10.72 | 7.71 | 22.34 | 39.4 | 37.82 | 46.96 | – | – | – | – | – | – |
| O=C(O)CN(c1nc(Cl)nc2c1ncn2C1CCCCO1)C1CC1 (centres undefined) | 3.12 | 3.41 | 7.68 | 15.24 | 8.22 | 5.21 | – | – | – | – | – | – |
| CC(C)C[C@H](NC(=O)CN(c1nc(Cl)nc2c1ncn2C1CCCCO1)C1CC1)C(=O)OCc1ccccc1 (some centres undefined) | 6.47 | 0.04 | 12.79 | 34.19 | 28.22 | 26.2 | – | – | – | – | – | – |
| C[C@H](NC(=O)CN)C(=O)OCc1ccccc1 (H-Gly-Ala-OBn) | – | – | – | – | – | – | 13.45 | 12.25 | 13 | 12.99 | 13.32 | 13.57 |
| CCOC(=O)CN(c1nc(Cl)nc2c1ncn2C1CCCCO1)C1CC1 (centres undefined) | 11.85 | 5.33 | 14.91 | 22.64 | 13.04 | 9.92 | – | – | – | – | – | – |
| O=C(CN(c1nc(Cl)nc2c1ncn2C1CCCCO1)C1CC1)N[C@@H](Cc1ccc(O)cc1)C(=O)OCc1ccccc1 (some centres undefined) | 8.71 | 12.02 | 17.44 | 35.82 | 36.45 | 20.53 | – | – | – | – | – | – |
| CC[C@H](C)[C@H](NC(=O)CN(c1nc(Cl)nc2c1ncn2C1CCCCO1)C1CC1)C(=O)OCc1ccccc1 (some centres undefined) | 16.43 | 9.15 | 20.42 | 27.35 | 22.57 | 25.56 | – | – | – | – | – | – |
| O=C(CN(c1nc(Cl)nc2c1ncn2C1CCCCO1)C1CC1)N[C@@H](Cc1cnc[nH]1)C(=O)OCc1ccccc1 (some centres undefined) | 5.31 | 4.38 | 10.16 | 36.43 | 14.45 | 24.98 | – | – | – | – | – | – |
| CSCC[C@H](NC(=O)CN(c1nc(Cl)nc2c1ncn2C1CCCCO1)C1CC1)C(=O)OCc1ccccc1 (some centres undefined) | 17.47 | 12.89 | 28.66 | 40.97 | 42.7 | 30.04 | – | – | – | – | – | – |
| CC(C)[C@H](NC(=O)CN(c1nc(Cl)nc2c1ncn2C1CCCCO1)C1CC1)C(=O)OCc1ccccc1 (some centres undefined) | 21.08 | 5.65 | 25.79 | 34.85 | 30.14 | 21.83 | – | – | – | – | – | – |
| O=C(CN(c1nc(Cl)nc2c1ncn2C1CCCCO1)C1CC1)N[C@@H](CC(=O)OCc1ccccc1)C(=O)OCc1ccccc1 (some centres undefined) | 0.06 | 0.03 | 7.82 | 38.15 | 25.07 | 31.81 | – | – | – | – | – | – |

From ChEMBL document CHEMBL1255208, “A class of novel conjugates of substituted purine and Gly-AA-OBzl: synthesis and evaluation of orally analgesic activity” (2010)
